Results as given in publication PMC7751407, “Novel oxindole/benzofuran hybrids as potential dual CDK2/GSK-3β inhibitors targeting breast cancer: design, synthesis, biological evaluation, and in silico studies” (Journal of Enzyme Inhibition and Medicinal Chemistry, 2020).

How the values were obtained:
MCF-7 = experiment: MTT anti-proliferative assay, MCF-7 breast cancer cells; assay type: cell-based; conditions: Homo sapiens, MCF7, 48 h exposure, mean ± SD of three separate experiments
Description: (§1) 1. Anti-proliferative activity toward human breast cell lines
(§2) The two examined human breast cancer cell lines (T-47D and MCF-7) have been obtained from American Type Culture Collection (ATCC). Cells lines were maintained as monolayers in Dulbecco’s Modified Eagle’s Medium (DMEM) supplemented with 10% FBS, 2 mM L-glutamine, 100 U/ml penicillin and 100µg/ml streptomycin sulfate. Cells were sub-cultured with trypsine /EDTA solution, counted with haemocytometer and plated onto 96-well plates (5000 cells/well) and left overnight to form a semi-confluent monolayer. Cell monolayers were treated in quadrates with vehicle (DMSO, 0.1% v/v), test samples or Adriamycin as positive control for an exposure time of 48 h. At the end of exposure, MTT solution in PBS (5 mg/ml) was then added to all well including no cell blank and left to incubate for 90 min. The formation of formazan crystals were visually confirmed using phase contract microscopy. DMSO (100 µl/well) was added to dissolve the formazan crystals with shaking for 10 min after which the absorbance was read at 590 nm against no cell blanks on a FLuo Star Optima microplate reader (BMG technologies, Germany).
(§3) Cell proliferation was calculated comparing the OD values of the DMSO control wells and those of the samples represented as % proliferation to the control. Dose-response experiment was performed on samples producing > or =50% loss of cell proliferation using five serial 2-fold […]
(§4) IC50 values (concentration of sample causing 50% loss of cell proliferation of the vehicle control) were calculated using non-linear regression curve fitting of the dose response plots on GraphPad Prism V.6.0 software. […]

T-47D = experiment: MTT anti-proliferative assay, T-47D breast cancer cells; assay type: cell-based; conditions: Homo sapiens, T47D, 48 h exposure, mean ± SD of three separate experiments
Description: as §1, §2, §3, §4

CDK2 = biological target: T1, CDK2 (Homo sapiens, UniProt P24941); experiment: CDK2 kinase inhibition (CDK2 Kinase Enzyme System, Promega); assay type: biochemical; conditions: mean ± SD of three separate experiments
T1 construct: purchased Promega, Milan, Italy V2971
Description: (§5) 2. CDK2/GSK-3β Kinase Inhibitory Activities
(§6) The CDK2 and GSK-3β inhibitory activities were determined for hybrids 5a-g using the CDK2
(§7) Kinase Enzyme System (catalog No. V2971) (Promega, Milan, Italy), and GSK3β Assay Kit

GSK-3β = biological target: T2, GSK-3β (Homo sapiens, UniProt P49841); experiment: GSK-3β kinase inhibition (GSK3β Assay Kit, BPS Biosciences); assay type: biochemical; conditions: mean ± SD of three separate experiments
T2 construct: purchased BPS Biosciences, San Diego, CA, USA 79700
T2 sequence (P49841 whole entry): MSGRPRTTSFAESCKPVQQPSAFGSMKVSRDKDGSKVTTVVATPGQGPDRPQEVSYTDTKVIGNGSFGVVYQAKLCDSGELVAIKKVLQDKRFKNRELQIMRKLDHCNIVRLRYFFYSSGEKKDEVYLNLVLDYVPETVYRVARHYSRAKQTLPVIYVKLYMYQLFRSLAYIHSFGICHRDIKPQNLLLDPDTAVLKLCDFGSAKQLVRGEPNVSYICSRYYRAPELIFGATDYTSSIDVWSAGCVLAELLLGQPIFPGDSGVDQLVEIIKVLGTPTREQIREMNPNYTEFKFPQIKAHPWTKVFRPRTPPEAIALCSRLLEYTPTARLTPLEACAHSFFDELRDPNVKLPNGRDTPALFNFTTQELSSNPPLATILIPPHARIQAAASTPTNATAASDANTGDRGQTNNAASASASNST
Description: as §5, §6, §7

MCF-10A = experiment: MTT cytotoxicity towards non-tumorigenic breast cells MCF-10A; assay type: cell-based, human; conditions: for IC50: Homo sapiens, MCF-10A, MTT assay, non-tumorigenic breast cell line; for Mean tumour selectivity index (S.I.): IC50 for MCF-10A/IC50 average for (MCF-7 and T-47D)
Source text: In order to investigate their selectivity on cancer cells, hybrids 5d, 5e and 5f, endowed with dual growth inhibitory action against MCF-7 and T-47D cells, were assesses for their cytotoxic action towards the non-tumorigenic breast cells (MCF-10A), via the MTT assay. The obtained IC50s and the calculated mean tumour selectivity index (S.I.); IC50 for MCF-10A/IC50 average for (MCF-7 and T-47D) have been presented in Table 5.
as §1, §2
Cell proliferation was calculated comparing the OD values of the DMSO control wells and those of the samples represented as % proliferation to the control. Dose-response experiment was performed on samples producing > or =50% loss of cell proliferation using five serial 2-fold dilutions (50, 25, 12.5, 6.25 and 3.125 µM) of the sample. IC50 values (concentration of sample causing 50% loss of cell proliferation of the vehicle control) were calculated using non-linear regression curve fitting of the dose response plots on GraphPad Prism V.6.0 software. […]

MCF-7 cells [1] = experiment: Cell cycle analysis by flow cytometry (PI stain) in MCF-7 cells; assay type: cell-based, human; conditions: 24 h, at IC50 concentration; for %Sub-G1: control 1.29; for %G2/M: control 11.3; for %S: control 33.82; for %G0-G1: control 53.59
Description: Compounds showing promising antiproliferative as well as kinase inhibitory activity 5d, 5e and 5f were further investigated for their influence on the cell cycle progression by flow cytometry analysis using propidium iodide (PI) stain. Cell cycle parameters were compared for the breast cancer MCF-7 cells with DMSO as control and after treatment with the compounds of interest and incubation for 24 h, and the results were presented in Figure 5 and Table 3. […]
concentration), and then cells were washed twice with ice-cold phosphate buffered saline (PBS).
Subsequently, the treated cells were collected by centrifugation, fixed in ice-cold 70% (v/v) ethanol, washed with PBS, re-suspended with 100 μg/mL RNase, stained with 40 μg/mL PI, and analyzed by flow cytometry using FACS Calibur (Becton Dickinson, BD, Franklin Lakes, NJ,

MCF-7 cells [2] = experiment: Annexin V-FITC/PI dual staining apoptosis assay in MCF-7 cells; assay type: cell-based, human; conditions: at IC50 concentration; for Late Apoptosis (Upper Right %): control 0.19; for Early Apoptosis (Lower Right %): control 0.63; for Total apoptosis (L.R % + U.R %): control 0.82; for Necrosis: upper left quadrant, control 0.49
Description: To investigate further the effect of the promising compounds 5d, 5e, and 5f on cell apoptosis, Annexin V-FITC/propidium iodide dual staining assay was performed according to the reported method. The morphological markers of apoptosis in the breast cancer MCF-7 cell line were examined before and after treatment with the compounds of interest. Apoptosis assay depends on the translocation of the phosphatidylserine (PS) phospholipid to the cell surface in cells undergoing apoptosis which can be easily detected by staining with the fluorescent conjugate of annexin V followed by flow cytometry analysis. Simultaneously, MCF-7 cells were stained with propidium iodide (PI) which could enter cells with damaged plasma membranes only. This enables the discrimination between early apoptotic cells (positive for PS, but negative for PI) from late apoptotic and necrotic cells (positive for both PS and PI). […]
4. Annexin V-FITC Apoptosis Assay
Phosphatidylserine externalization was assayed using Annexin V-FITC/PI apoptosis detection kit (BD Biosciences, USA) according to the manufacturer’s instructions. Breast cancer MCF-7 cells were cultured to a monolayer then treated with hybrids (5d, 5e and 5f) at their IC50 concentration. Briefly, cells were then harvested via trypsinization, and rinsed twice in PBS followed by binding buffer. Moreover, cells were re-suspended in 100 μL of binding buffer with the addition of 1 μL of FITC-Annexin V followed by an incubation period of 30 min at 4 °C. Cells were then rinsed in binding buffer and resuspended in 150 μL of binding buffer with the addition of 1 μL of DAPI (1 μg/μL in PBS). Cells were then analyzed using the flow cytometer BD FACS Canto II and the results were interpreted with FlowJo7.6.4 software (Tree Star, Ashland, OR,

| Compound | IC50 (MCF-7) | IC50 (T-47D) | IC50 (CDK2) | IC50 (GSK-3β) | melting point | further results |
| --- | --- | --- | --- | --- | --- | --- |
| O=C1Nc2ccccc2C1=NNC(=O)c1cc2cc(Br)ccc2o1 [5a, 5-Bromo-N'-(2-oxoindolin-3-ylidene)benzofuran-2-carbohydrazide] | 5.47 ± 0.16 µM | 9.67 ± 0.31 µM | 0.141 ± 0.0077 µM | 0.137 ± 0.0075 µM | > 300 °C | – |
| O=C1Nc2ccc(F)cc2C1=NNC(=O)c1cc2cc(Br)ccc2o1 [5b, 5-Bromo-N'-(5-fluoro-2-oxoindolin-3-ylidene)benzofuran-2-carbohydrazide] | 12.9 ± 0.38 µM | 1.27 ± 0.04 µM | 0.0525 ± 0.0029 µM | 0.212 ± 0.012 µM | > 300 °C | – |
| O=C1Nc2ccc(Cl)cc2C1=NNC(=O)c1cc2cc(Br)ccc2o1 [5c, 5-Bromo-N'-(5-chloro-2-oxoindolin-3-ylidene)benzofuran-2-carbohydrazide] | 12.5 ± 0.37 µM | 6.03 ± 0.19 µM | 0.0854 ± 0.0046 µM | 0.102 ± 0.0056 µM | > 300 °C | – |
| O=C1Nc2ccc(Br)cc2C1=NNC(=O)c1cc2cc(Br)ccc2o1 [5d, 5-Bromo-N'-(5-bromo-2-oxoindolin-3-ylidene)benzofuran-2-carbohydrazide] | 3.41 ± 0.1 µM | 3.82 ± 0.12 µM | 0.0378 ± 0.0021 µM | 0.0321 ± 0.0017 µM | > 300 °C | IC50 (MCF-10A): 21.7 ± 1.05 µM; Mean tumour selectivity index (S.I.) (MCF-10A): 6.0; %Sub-G1 (MCF-7 cells [1]): 13.27%; %G2/M (MCF-7 cells [1]): 30.26%; %S (MCF-7 cells [1]): 22.5%; %G0-G1 (MCF-7 cells [1]): 33.97%; Late Apoptosis (Upper Right %) (MCF-7 cells [2]): 10.14%; Early Apoptosis (Lower Right %) (MCF-7 cells [2]): 3.61%; Total apoptosis (L.R % + U.R %) (MCF-7 cells [2]): 13.75%; Necrosis (MCF-7 cells [2]): 1.56% |
| Cc1ccc2c(c1)C(=NNC(=O)c1cc3cc(Br)ccc3o1)C(=O)N2 [5e, 5-Bromo-N'-(5-methyl-2-oxoindolin-3-ylidene)benzofuran-2-carbohydrazide] | 3.45 ± 0.1 µM | 4.53 ± 0.14 µM | 0.177 ± 0.0096 µM | 0.0808 ± 0.0044 µM | > 300 °C | IC50 (MCF-10A): 23.6 ± 0.86 µM; Mean tumour selectivity index (S.I.) (MCF-10A): 5.9; %Sub-G1 (MCF-7 cells [1]): 17.73%; %G2/M (MCF-7 cells [1]): 29.21%; %S (MCF-7 cells [1]): 23.21%; %G0-G1 (MCF-7 cells [1]): 29.85%; Late Apoptosis (Upper Right %) (MCF-7 cells [2]): 15.08%; Early Apoptosis (Lower Right %) (MCF-7 cells [2]): 4.66%; Total apoptosis (L.R % + U.R %) (MCF-7 cells [2]): 19.74%; Necrosis (MCF-7 cells [2]): 1.81% |
| Cc1cc(C)c2c(c1)C(=NNC(=O)c1cc3cc(Br)ccc3o1)C(=O)N2 [5g, 5-Bromo-N'-(5,7-dimethyl-2-oxoindolin-3-ylidene)benzofuran-2-carbohydrazide] | 12 ± 0.35 µM | 6.65 ± 0.21 µM | 0.105 ± 0.0057 µM | 0.0755 ± 0.0041 µM | > 300 °C | – |
| CN1C(=O)C(=NNC(=O)c2cc3cc(Br)ccc3o2)c2ccccc21 [7a, 5-Bromo-N'-(1-methyl-2-oxoindolin-3-ylidene)benzofuran-2-carbohydrazide] | 10.4 ± 1.01 µM | 11.8 ± 1.05 µM | – | – | 260 to 262 °C | – |
| C=CCN1C(=O)C(=NNC(=O)c2cc3cc(Br)ccc3o2)c2ccccc21 [7b, N'-(1-Allyl-2-oxoindolin-3-ylidene)-5-bromobenzofuran-2-carbohydrazide] | 2.64 ± 0.07 µM | 12.2 ± 0.4 µM | – | – | 207 to 209 °C | – |
| CC(C)CN1C(=O)C(=NNC(=O)c2cc3cc(Br)ccc3o2)c2ccccc21 [7c, 5-Bromo-N'-(1-isobutyl-2-oxoindolin-3-ylidene)benzofuran-2-carbohydrazide] | 37 ± 1.87 µM | 43.3 ± 2.39 µM | – | – | 216 to 218 °C | – |
| CCOC(=O)CN1C(=O)C(=NNC(=O)c2cc3cc(Br)ccc3o2)c2ccccc21 [7d, Ethyl-2–(3-(2–(5-bromobenzofuran-2-carbonyl)hydrazono)-2-oxoindolin-1-yl)acetate] | 7.48 ± 0.22 µM | 19 ± 0.62 µM | – | – | 215 to 216 °C | – |
| O=C(NN=C1C(=O)N(Cc2ccccc2)c2ccccc21)c1cc2cc(Br)ccc2o1 [7e, N'-(1-Benzyl-2-oxoindolin-3-ylidene)-5-bromobenzofuran-2-carbohydrazide] | 8.33 ± 0.24 µM | 11.8 ± 0.38 µM | – | – | 248 to 250 °C | – |
| O=C(NN=C1C(=O)N(CCc2ccccc2)c2ccccc21)c1cc2cc(Br)ccc2o1 [7f, 5-Bromo-N'-(2-oxo-1-phenethylindolin-3-ylidene)benzofuran-2-carbohydrazide] | 24.7 ± 0.72 µM | 38.7 ± 1.26 µM | – | – | 239 to 241 °C | – |
| CC(C)CN1C(=O)C(=NNC(=O)c2cc3cc(Br)ccc3o2)c2cc(Br)ccc21 [7g, 5-Bromo-N'-(5-bromo-1-isobutyl-2-oxoindolin-3-ylidene)benzofuran-2-carbohydrazide] | 24.8 ± 0.73 µM | 9.67 ± 0.31 µM | – | – | 244 to 246 °C | – |
| O=C(NN=C1C(=O)N(Cc2ccccc2)c2ccc(Br)cc21)c1cc2cc(Br)ccc2o1 [7h, N'-(1-Benzyl-5-bromo-2-oxoindolin-3-ylidene)-5-bromobenzofuran-2-carbohydrazide] | 4.32 ± 0.12 µM | 1.72 ± 0.04 µM | – | – | 236 to 237 °C | – |
| CC(C)CN1C(=O)C(=NNC(=O)Nc2cc3cc(Br)ccc3o2)c2ccccc21 [13a, N-(5-Bromobenzofuran-2-yl)-2–(1-isobutyl-2-oxoindolin-3-ylidene)hydrazine-1-carboxamide] | 18.2 ± 0.53 µM | 3.22 ± 0.1 µM | – | – | 208 to 210 °C | – |
| O=C(NN=C1C(=O)N(Cc2ccccc2)c2ccccc21)Nc1cc2cc(Br)ccc2o1 [13b, 2–(1-Benzyl-2-oxoindolin-3-ylidene)-N-(5-bromobenzofuran-2-yl)hydrazine-1-carboxamide] | 5.7 ± 0.16 µM | 10.9 ± 0.35 µM | – | – | 217 to 219 °C | – |
